Laboratory results as given in patent US20160310434A1, “GASTRO-RETENTIVE ORAL PHARMACEUTICAL COMPOSITIONS” (ETHYPHARM, priority 2013, published 2016).

Tests used:
Assay type in all cases: physicochemical
pKa of baclofen = test: pKa of baclofen
Source text: (§1) Baclofen (below) is a BCS class III molecule.

[1] = pH of a saturated solution of baclofen
Source text: as §1

Solubilities of baclofen = test: Solubilities of baclofen
Source text: as §1

Log P of baclofen = test: Log P of baclofen
Source text: as §1
At usual therapeutic doses, baclofen is known to have good oral bioavailability. However, its low log P indicates some hydrophilicity and thus low permeability. This observation is explained by the presence of specific transporters at the small intestine allowing the molecule to pass. This is even greater at the jejunum. […] This region of the digestive system contains no transporters but since the molecule is hydrophilic and of small size, weak passive transport through the tight junctions is possible. It thus appears that when a higher plasma concentration of baclofen is required, the taking of a higher dose is not effective due to saturation of the transporters. The clinical solution is thus to take small doses at shorter time intervals, which can quickly become burdensome for the patient.

SMILES: NCC(CC(=O)O)c1ccc(Cl)cc1 (stereo not drawn) [baclofen, Baclofen]
- pKa1 (pKa of baclofen): pKa1 = 3.87
- pKa2 (pKa of baclofen): pKa2 = 9.62
- pH of a saturated solution [1]: 6.5
- Solubility (Solubilities of baclofen; 0.1N HCl): Soluble: 0.1N HCl, 0.1N NaOH
- Solubility (Solubilities of baclofen; 0.1N NaOH): Soluble: 0.1N HCl, 0.1N NaOH
- Solubility (Solubilities of baclofen; ethanol): Very slightly soluble: ethanol, methanol
- Solubility (Solubilities of baclofen; methanol): Very slightly soluble: ethanol, methanol
- Solubility (Solubilities of baclofen; water): Slightly soluble: water (3 mg/ml)
- Log P (Log P of baclofen): −1
